Results: patent publication US20130130985A1 (priority 2010, published 2013)
Where a SMILES comes first, the peptide text is derived from it.

How the values were obtained:
hOTR [1] = biological target: T1, hOTR (Homo sapiens, UniProt P30559); experiment: Functional IP-One HTRF assay; format: cell-based; conditions: for Emax: read-out: hOTR Emax
T1 construct: expressed in transfected cells; host or cells: COS-1
T1 sequence (P30559 1-389): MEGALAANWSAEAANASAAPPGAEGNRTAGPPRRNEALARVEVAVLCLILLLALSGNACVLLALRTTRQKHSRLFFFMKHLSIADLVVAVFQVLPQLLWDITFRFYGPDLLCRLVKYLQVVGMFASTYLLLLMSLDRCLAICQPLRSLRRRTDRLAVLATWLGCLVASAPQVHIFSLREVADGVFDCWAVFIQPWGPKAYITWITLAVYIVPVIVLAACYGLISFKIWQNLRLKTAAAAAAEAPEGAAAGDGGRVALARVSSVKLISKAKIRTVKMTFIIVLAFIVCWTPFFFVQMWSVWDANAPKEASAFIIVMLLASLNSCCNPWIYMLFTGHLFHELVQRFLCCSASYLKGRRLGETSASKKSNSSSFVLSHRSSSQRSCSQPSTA
Description: (§1) Cells were lysed by the addition of the HTRF reagents (the europium cryptate-labeled anti-IP1 antibody and the d2-labeled IP1 analogue) diluted in lysis buffer. The assays were incubated for 1 h at room temperature.

hV1aR [2] = biological target: T2, hV1aR (Homo sapiens, UniProt P37288); experiment: Functional IP-One HTRF assay; format: cell-based
T2 construct: expressed in transfected cells; host or cells: COS-1
T2 sequence (P37288 whole entry): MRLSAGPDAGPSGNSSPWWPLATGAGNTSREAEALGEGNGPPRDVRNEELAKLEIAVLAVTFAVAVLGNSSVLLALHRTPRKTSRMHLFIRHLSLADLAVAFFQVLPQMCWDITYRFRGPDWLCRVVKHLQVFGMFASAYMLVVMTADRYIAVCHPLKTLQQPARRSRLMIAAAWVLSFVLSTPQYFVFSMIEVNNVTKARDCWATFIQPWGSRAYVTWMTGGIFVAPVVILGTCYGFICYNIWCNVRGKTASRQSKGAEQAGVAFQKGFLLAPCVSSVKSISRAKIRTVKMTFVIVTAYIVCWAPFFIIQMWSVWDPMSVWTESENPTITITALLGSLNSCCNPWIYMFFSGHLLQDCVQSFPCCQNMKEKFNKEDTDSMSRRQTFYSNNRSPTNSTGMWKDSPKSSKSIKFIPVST
Description: as §1

hV1bR [3] = biological target: T3, hV1bR (Homo sapiens, UniProt P47901); experiment: Functional IP-One HTRF assay; format: cell-based
T3 construct: expressed in transfected cells; host or cells: COS-1
T3 sequence (P47901 1-424): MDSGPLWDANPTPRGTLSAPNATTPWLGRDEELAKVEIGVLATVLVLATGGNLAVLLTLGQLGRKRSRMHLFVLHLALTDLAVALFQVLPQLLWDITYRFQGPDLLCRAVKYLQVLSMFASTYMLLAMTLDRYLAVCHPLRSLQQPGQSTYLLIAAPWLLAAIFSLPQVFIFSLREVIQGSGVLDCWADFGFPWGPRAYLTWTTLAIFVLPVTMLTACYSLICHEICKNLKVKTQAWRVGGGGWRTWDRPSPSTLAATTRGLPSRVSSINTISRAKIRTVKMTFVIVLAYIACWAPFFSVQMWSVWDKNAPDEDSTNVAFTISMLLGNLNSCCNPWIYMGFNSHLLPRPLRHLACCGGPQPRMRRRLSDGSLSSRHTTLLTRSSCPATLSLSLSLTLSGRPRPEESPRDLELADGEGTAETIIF
Description: as §1

hV1aR [4] = biological target: T2, hV1aR; experiment: Functional FLIPR assay (calcium signalling); format: cell-based
Description: (§2) To allow for complete de-esterification of the dye, cells were washed 5-10 min with PSS before transfer to a FLIPR^TETRA (Molecular Devices, Sunnyvale, Calif.) fluorescent plate reader. […] The baseline fluorescence was set to a minimum of 1000 arbitrary fluorescence units by adjusting camera gain and excitation intensity. Compounds were added as 3× concentrated stock solutions in PSS, with 10 baseline fluorescence readings prior to compound addition followed by fluorescence reading every second for 180 s.
(§3) As previously described, raw fluorescence data was converted to ΔF/F values by subtracting baseline fluorescence readings from subsequent time points and dividing by baseline fluorescence values. […] A 4-parameter Hill equation with Hill coefficient=1 was fitted to the data using GraphPad Prism (Version 4.00, San Diego, Calif.).

[5] = phosphate buffer pH 7.4, 37° C., over a period of 48 h
hV1bR [6] = biological target: T3, hV1bR; experiment: Radioligand binding assay, displacement of 3H-AVP, COS-1 membranes
hOTR [7] = biological target: T1, hOTR; experiment: Functional FLIPR assay (calcium signalling); format: cell-based
Description: as §2, §3

hV1bR [8] = biological target: T3, hV1bR; experiment: Functional FLIPR assay (calcium signalling); format: cell-based
Description: as §2, §3

hOTR [9] = biological target: T1, hOTR; experiment: Radioligand binding assay, displacement of 3H-OT, COS-1 membranes
[10] = Stability assay in rat plasma and human serum (metabolic half life); conditions: Half life (h), 37° C., matrix of the values not specified
Description: 300 μL rat plasma and human serum (Sigma Aldrich) was incubated at 37° C. for 30 min. 50 mL of peptide sample (0.3 mM) in 0.1 M phosphate buffer, pH 7.2 was added to the rat plasma and human serum. The vortexed mixture was incubated at 37° C.

Emax (hOTR [1]) [%]	Emax (hV1aR [2]) [%]	Emax (hV1aR [4]) [%]	Compound	Emax (hV1bR [3]) [%]	degradation in phosphate buffer [5]	further results
	79 ± 9	71	CC[C@H](C)[C@@H]1NC(=O)[C@H](Cc2ccc(O)cc2)NC(=O)[C@@H](N)CSSC[C@@H](C(=O)N2CCC[C@H]2C(=O)N[C@@H](CC(C)C)C(=O)NCC(N)=O)NC(=O)[C@H](CC(N)=O)NC(=O)[C@H](CCC(N)=O)NC1=O [OT, Oxytocin]		no degradation was observed	
64 ± 14	75 ± 8		CC[C@H](C)[C@@H]1NC(=O)[C@H](Cc2ccc(O)cc2)NC(=O)[C@@H](N)CCSC[C@@H](C(=O)N2CCC[C@H]2C(=O)N[C@@H](CC(C)C)C(=O)NCC(N)=O)NC(=O)[C@H](CC(N)=O)NC(=O)[C@H](CCC(N)=O)NC1=O [[CH2—S]-OT] (HELM PEPTIDE1{[N[C@@H](CC[*:3])C(=O)[*:2]].Y.I.Q.N.C.P.L.G.[am]}$PEPTIDE1,PEPTIDE1,1:R3-6:R3$$$V2.0; N-terminus and C-terminus assumed)			
100		54	CC[C@H](C)[C@@H]1NC(=O)[C@H](Cc2ccc(O)cc2)NC(=O)CCSSC[C@@H](C(=O)N2CCC[C@H]2C(=O)N[C@@H](CC(C)C)C(=O)NCC(N)=O)NC(=O)[C@H](CC(N)=O)NC(=O)[C@H](CCC(N)=O)NC1=O [dOT]	67 ± 10		IC50 (hV1bR [6]): 351 ± 125 nM; Emax (hOTR [7]): 89%; EC50 (hOTR [7]; FLIPR assay, COS-1): 0.39 nM; EC50 (hV1aR [4]; FLIPR assay, COS-1): 46.1 nM; Emax (hV1bR [8]): 100%; EC50 (hV1bR [8]; FLIPR assay, COS-1): 15.9 ± 5.96 nM; IC50 (hOTR [9]): 1.7 nM; EC50 (hOTR [1]; IP-One assay, COS-1): 0.71 nM; EC50 (hV1bR [3]; IP-One assay, COS-1): 470 ± 422 nM
			NC(=O)CC[C@@H]1NC(=O)[C@H](Cc2ccccc2)NC(=O)[C@H](Cc2ccc(O)cc2)NC(=O)[C@@H](N)CSSC[C@@H](C(=O)N2CCC[C@H]2C(=O)N[C@@H](CCCN=C(N)N)C(=O)NCC(N)=O)NC(=O)[C@H](CC(N)=O)NC1=O [AVP, arginine-vasopressin]		no degradation was observed	half-life at 0.043 mM [10]: 2 h

Compound	Emax (hOTR [1]) [%]	Emax (hV1aR [2]) [%]	Emax (hV1aR [4]) [%]	Emax (hV1bR [3]) [%]	degradation in phosphate buffer [5]	further results
CC[C@H](C)[C@@H]1NC(=O)[C@H](Cc2ccc(O)cc2)NC(=O)[C@@H](N)CSSC[C@@H](C(=O)N2CCC[C@H]2C(=O)N[C@@H](CC(C)C)C(=O)NCC(=O)O)NC(=O)[C@H](CC(N)=O)NC(=O)[C@H](CCC(N)=O)NC1=O [[S—S]-OT-OH, OT-OH]	82 ± 13	77 ± 24		96 ± 6		drop in functional efficacy at the hOTR (hOTR [1]; compared to OT): 10-30 fold; drop in functional efficacy at the hV1bR (hV1bR [3]; compared to OT): 10-30 fold
